For series [1] the following is noted: reported ETPC range; cited from earlier work.
For series [2], the system named is cardiac tissues bioprinted using dECM-rGO bioink (hiPSC-derived cardiomyocytes and HS27A stromal cells). Put plainly: Cisapride cardiotoxicity dose response, FluoVolt imaging, tissues printed with dECM-rGO bioink. Format: cell-based. The conditions noted are these: Homo sapiens, HS-27A. The method, then:
(§1) Tissues and support structures were bioprinted using a commercially available dual-extruder pneumatic bioprinter (Allevi BioBot 1). Five pairs of polycaprolactone (PCL) posts 1 mm in diameter, 5 mm tall, and 10 mm apart were printed in each well of a standard 6-well plate. An approximately 2 mm thick layer of NOA 83H resin (Norland Optical Adhesives) was then deposited onto the bottom of each well and cured by a 30 min exposure to UV light. Plates containing anchored posts were then sterilized by immersion in 70% v/v ethanol and subsequent UV light exposure. Sacrificial wells 12 mm×5 mm×1 mm (length×width×depth) were then printed around each post pair using 40% w/v Pluronic F-127, followed by approximately 50 μL of cell-laden hydrogel bioinks with the same cell densities as used in the EHT platform (20×10^6 hiPSC-derived cardiomyocytes/mL and 5×10^6 HS27A stromal cells/mL). Completed plates were then incubated at 37° C. and 5% CO2 for approximately 60 min, after which 5 mL of RPMI/B-27 with insulin (supplemented with Y-27632 dihydrochloride ROCK inhibitor and 1% penicillin/streptomycin) was added to each well. After 24 hrs, the media was replaced with fresh RPMI/B-27 with insulin and media changes were conducted every other day until tissues were used for drug screening. Exemplary cardiac tissues were bioprinted using dECM and dECM-rGO bioinks disclosed herein and cultured for 14 and 35 days. At these time points, tissues were washed with warm PBS before being incubated in medium containing a 1000X dilution of stock FluoVolt for 1 hr at 37° C., after which tissues were washed twice with warm Tyrode's buffer and incubated in Tyrode's containing 0.01, 0.1, 1, 5, 10, 50, 100, and 1000 nM cisapride (Sigma-Aldrich) dissolved in dimethyl sulfoxide (DMSO) for 45 mins. A group of tissues were also incubated in Tyrode's containing no cisapride, but an equivalent volume of DMSO (1 μL DMSO/mL Tyrode's). Functional response of these tissues to administered drug was assessed using FluoVolt dye in conjunction with live-tissue imaging as described above. Change in beat interval (ABI) was determined by measuring that duration of elapsed time between individual beats (the beat interval) and calculating the difference in this interval from one beat to the next. APD90 values were calculated as described above. Best-fit dose response curves were calculated using GraphPad Prism software. Drug concentration values were first transformed to a log scale and APD90 or ABI values were normalized such that the lowest value was set at 0% and the largest value at 100%. Finally, the normalized data was fit to a non-linear dose response curve using a least squares fit.

The test system of series [3] is cardiac tissues bioprinted using dECM bioink (hiPSC-derived cardiomyocytes and HS27A stromal cells). Put plainly: Cisapride cardiotoxicity dose response, FluoVolt imaging, tissues printed with dECM bioink. In kind it is cell-based. The conditions noted are these: Homo sapiens, HS-27A. The method, then:
as §1

The mark [4] stands for this setting: 336 h, Day 14 of culture, change in beat interval, read-out: IC50 (ΔBI).
Setting [5] is: Day 35 of culture, change in beat interval, read-out: IC50 (ΔBI).
Where [6] appears, read: Day 35 of culture, read-out: IC50 (APD90).

Read-outs that look alike come from different tables or passages of the source.

This is an account of results in US20210108180A1, “ELECTROCONDUCTIVE DECELLULARIZED EXTRACELLULAR MATRIX COMPOSITIONS FOR PREPARATION OF ENGINEERED TISSUES AND RELATED METHODS” (University of Washington, priority 2019, published 2021).

With `COc1cc(N)c(Cl)cc1C(=O)NC1CCN(CCCOc2ccc(F)cc2)CC1OC` (stereo not drawn) [cisapride], the “effective therapeutic plasma concentration (ETPC)” value in series [1] was 2.6 to 4.9 nM. For the same compound, the IC50 in series [2] (setting [4]) worked out at 8.6 ± 1.2 nM; in series [2] (Day 14 of culture, 45 min cisapride, read-out: IC50 (APD90)), 2.5 ± 1.3 nM; in series [2] (setting [5]) it was 3.1 ± 1.3 nM; in series [2] (setting [6]) it was 1.8 ± 1.4 nM; in series [3] (setting [4]), 73.4 ± 1.4 nM; in series [3] (336 h, Day 14 of culture, read-out: IC50 (APD90)), 61.8 ± 1.4 nM. The half-maximal inhibitory concentration (IC50) was determined as 7.3 ± 1.2 nM in series [3] (setting [5]) and 2 ± 1.3 nM in series [3] (setting [6]).
